Test results: US11311501B2, “Mitoriboscins: mitochondrial-based therapeutics targeting cancer cells, bacteria, and pathogenic yeast” (LUNELLA BIOTECH, INC., priority 2017, dated 2022)
≈ marks a conversion by molar mass, not a printed value.

What was measured:
MCF7 cells [1] = assay: Seahorse XF96 metabolic flux analysis (OCR/ECAR); assay type: cell-based, human; details: for rank order potency to reduce maximal respiration and ATP production: top 10 hits, FIG. 10; for effect on glycolysis: ECAR; for inhibition of mitochondrial oxygen-consumption: FIGS. 7, 8 and 9
Description: The present approach further involves methods of functional validation at step S105, during which a compound's function as a mitochondrial inhibitor may be confirmed. A number of methods may be used for functional validation, including, for example, metabolic flux analysis, mammosphere assays, viability assays, and antibiotic (anti-bacterial and/or anti-fungal) activity. For example, the inventors determined extracellular acidification rates (ECAR) and real-time oxygen consumption rates (OCR) for MCF7 cells using the Seahorse Extracellular Flux (XF96) analyzer (Seahorse Bioscience, MA, USA). MCF7 cells were maintained in DMEM supplemented with 10% FBS (fetal bovine serum), 2 mM GlutaMAX, and 1% Pen-Strep. 5,000 cells per well were seeded into XF96-well cell culture plates, and incubated overnight at 37° C. in a 5% CO2 humidified atmosphere. After 24 hours, cells were treated with selected compounds showing ATP-depletion without prominent cytotoxicity at various concentrations (or vehicle alone). After 72 hours of treatment, cells were washed in pre-warmed XF assay media (for OCR measurement, XF assay media was supplemented with 10 mM glucose, 1 mM Pyruvate, 2 mM L-glutamine and adjusted at pH 7.4). Cells were maintained in 175 μL/well of XF assay media at 37° C. in a non-CO2 incubator for 1 hour. During incubation, 25 μL of 80 mM glucose, 9 μM oligomycin, 1M 2-deoxyglucose (for ECAR measurement) and 25 μL of 10 μM oligomycin, 9 μM FCCP, 10 μM rotenone, 10 μM antimycin A (for OCR measurement) in XF assay media was loaded into the injection ports of the XFe-96 sensor cartridge. During the experiment, the instrument injected these inhibitors into the wells at a given time point, while ECAR/OCR was measured continuously. ECAR and OCR measurements were normalized by protein content (using the Sulphorhodamine B assay). Data sets were analyzed by XFe-96 software, using one-way ANOVA and Student's t-test calculations. All experiments were performed in triplicate, and results validated the mitochondrial inhibition effects of mitoriboscin compounds described herein. It should be appreciated that numerous methods are known for functional validation, and that persons of skill in the art may select one or more depending on the validation needs (e.g., other assays that measure or approximate mitochondrial function). The present approach involves methods of function validation of mitoriboscin compounds. For example, the inventors assessed functional validation of three candidates using the Seahorse Analyzer, which quantitatively measures oxygen consumption rate (OCR) and extracellular acidification rate (ECAR). OCR is a surrogate marker for OXPHOS and ECAR is a surrogate marker for glycolysis and L-lactate production.

E. coli ATCC 25922 = assay: MIC by broth dilution method; assay type: cell-based; details: E. coli ATCC 25922, 24 hours at 37° C.; for MIC50 / MIC99: Escherichia coli, ATCC25922
Method: (§1) The minimal inhibitory concentration (MIC) of the antibacterial compounds may be determined using the broth dilution method, according to CLSI guidelines. Test compound solutions (or antibiotic solutions used as positive controls) were diluted, serially, with MHB medium. Then, the suspensions of the microorganisms, prepared from overnight cultures of bacteria in the MHB medium, at a concentration of 10^6 CFU/ml, were added to each dilution in a 1:1 ratio. McFarland standards were used as a reference to adjust the turbidity of microorganism suspensions. Growth (or lack thereof) of the microorganisms was determined after incubation for 24 hours at 37° C. by turbidimetry (wavelength of 600 nm). […] The susceptibility test by measurement of MIC was performed in triplicate and repeated three times independently.

[2] = tested on: Staph. aureus ATCC 25923 (MSSA); assay: MIC by broth dilution method; assay type: cell-based; details: for MIC50 / MIC99: Staphylococcus aureus
Method: as §1

K. pneumoniae ATCC 13883 = assay: MIC by broth dilution method; assay type: cell-based; details: for MIC50 / MIC99: Klebsiella pneumoniae, ATCC13883
Method: as §1

[3] = tested on: Strept. pyogenes ATCC 19615; assay: MIC by broth dilution method; assay type: cell-based; details: for MIC50 / MIC99: Streptococcus pyogenes, ATCC19615
Method: as §1

MRSA ATCC 43300 = assay: MIC by broth dilution method; assay type: cell-based, Methicillin-resistant Staphylococcus aureus; details: for sensitivity of MRSA: summary of Table 4
Method: as §1, with “nm). MIC 50 and MIC 99 are defined as the minimum inhibitory concentration of the compound required for 50% and 99% inhibition of bacterial growth.” for “nm).”, “independently. Statistical significance was determined using the Student's t-test and values of less than 0.05 were considered significant.” for “independently.”
(§2) In order to determine the minimal inhibitory concentration (MIC) for 24/F9, 24/D4 and 23/G4, the broth dilution method may be performed.

MCF7 cells [4] = assay: Mammosphere formation assay; assay type: cell-based, human; details: 5 μM, FIG. 5
Description: The present approach involves methods of testing compounds, and in particular mitoriboscins, for anti-cancer properties. As discussed above, vHTS and computational chemistry may be used to identify candidate mitochondrial inhibitors. Those candidates may be tested for specific anti-cancer properties. For examples, the inventors compared seven candidate compounds in parallel for their ability to inhibit mammosphere formation in MCF7 cells. […] For example, 23/G4 (Group 1) reduced mammosphere formation by 50% at this concentration. Similarly, 24/F9 (Group 2) and 24/D4 (Group 3), both reduced mammosphere formation by ˜90%.

P. auriginosa ATCC 27853 = assay: MIC by broth dilution method; assay type: cell-based, P. aeruginosa; details: for MIC50 / MIC99: Pseudomonas aeruginosa, ATCC27853
Method: as §1

C. albicans = assay: MIC by broth dilution method; assay type: cell-based; details: C. albicans ATCC 13883
Method: as §1, with “nm). MIC 50 and MIC 99 are defined as the minimum inhibitory concentration of the compound required for 50% and 99% inhibition of bacterial growth.” for “nm).”, “independently. Statistical significance was determined using the Student's t-test and values of less than 0.05 were considered significant.” for “independently.”
as §2

[5] = Staph. aureus ATCC 25923 (Table 3)
[6] = Staphylococcus aureus, MRSA ATCC 43300

Row | Structure (SMILES) | rank order potency to reduce maximal respiration and ATP production (MCF7 cells [1]) | MIC 50% ([2]; MSSA ATCC 25923 (Table 4)) | MIC 99% ([2]; MSSA ATCC 25923 (Table 4)) | MIC50 (E. coli ATCC 25922) | MIC99 (E. coli ATCC 25922) | MIC50 [2, 5] | MIC99 [2, 5] | MIC50 (K. pneumoniae ATCC 13883) | MIC99 (K. pneumoniae ATCC 13883) | MIC50 [3] | MIC99 [3] | MIC50 (P. auriginosa ATCC 27853) | MIC99 (P. auriginosa ATCC 27853) | other results
1 | OC1C(NCc2ccccc2)CCCC1Oc1ccccc1Oc1cccc(F)c1 (centres unmarked) [23/E9] | top 6 | – | – | – | – | – | – | – | – | – | – | – | – | –
2 | CCCc1ccc(OCc2ccccc2)c(CN2CCC3(CC2)CC(N(C)C)C(C)(O)CO3)c1 (centres unmarked) [24/D4] | – | 16 µg/mL (≈ 34.3 µM) | 32 µg/mL (≈ 68.6 µM) | – | – | – | – | – | – | – | – | – | – | MIC 50% (E. coli ATCC 25922): 16 µg/mL (≈ 34.3 µM); MIC 99% (E. coli ATCC 25922): 32 µg/mL (≈ 68.6 µM); MIC 50% [2, 5]: 16 µg/mL (≈ 34.3 µM); MIC 99% [2, 5]: 32 µg/mL (≈ 68.6 µM); MIC 50% (K. pneumoniae ATCC 13883): 16 µg/mL (≈ 34.3 µM); MIC 99% (K. pneumoniae ATCC 13883): 32 µg/mL (≈ 68.6 µM); MIC 50% [3]: 16 µg/mL (≈ 34.3 µM); MIC 99% [3]: 32 µg/mL (≈ 68.6 µM); MIC 50% (MRSA ATCC 43300; MRSA ATCC 43300): 16 µg/mL (≈ 34.3 µM); MIC 99% (MRSA ATCC 43300; MRSA ATCC 43300): >32 µg/mL; sensitivity of MRSA (MRSA ATCC 43300): sensitive; reduction of mammosphere formation (MCF7 cells [4]): ~90%; MIC 50% (P. auriginosa ATCC 27853): 16 µg/mL (≈ 34.3 µM); MIC 99% (P. auriginosa ATCC 27853): 32 µg/mL (≈ 68.6 µM); effect on glycolysis (MCF7 cells [1]): suppressed glycolysis; inhibition of mitochondrial oxygen-consumption (MCF7 cells [1]): dose-dependently inhibited; MIC 99% (C. albicans): >64 µg/mL
3 | CN1CCN(C2CCN(Cc3cc(C(C)(C)C)ccc3OCc3ccccc3)CCC2O)CC1 (centres unmarked) [24/F9] | top 6 | 32 µg/mL (≈ 68.7 µM) | 64 µg/mL (≈ 137 µM) | – | – | – | – | – | – | – | – | – | – | MIC 50% (E. coli ATCC 25922): 32 µg/mL (≈ 68.7 µM); MIC 99% (E. coli ATCC 25922): 64 µg/mL (≈ 137 µM); MIC 50% [2, 5]: 32 µg/mL (≈ 68.7 µM); MIC 99% [2, 5]: 64 µg/mL (≈ 137 µM); MIC 50% (K. pneumoniae ATCC 13883): 32 µg/mL (≈ 68.7 µM); MIC 99% (K. pneumoniae ATCC 13883): 64 µg/mL (≈ 137 µM); MIC 50% [3]: 32 µg/mL (≈ 68.7 µM); MIC 99% [3]: 64 µg/mL (≈ 137 µM); MIC 50% (MRSA ATCC 43300; MRSA ATCC 43300): 64 µg/mL (≈ 137 µM); MIC 99% (MRSA ATCC 43300; MRSA ATCC 43300): >64 µg/mL; reduction of mammosphere formation (MCF7 cells [4]): ~90%; MIC 50% (P. auriginosa ATCC 27853): >32 µg/mL; MIC 99% (P. auriginosa ATCC 27853): >64 µg/mL; effect on glycolysis (MCF7 cells [1]): suppressed glycolysis; inhibition of mitochondrial oxygen-consumption (MCF7 cells [1]): dose-dependently inhibited; MIC 99% (C. albicans): >64 µg/mL
4 | CN1CCCN(C2CCN(Cc3cc(Cl)ccc3OCc3ccccc3)CCC2O)CC1 (centres unmarked) [24/H6] | top 6 | – | – | – | – | – | – | – | – | – | – | – | – | –
5 | CN(C)C1CC2(CCN(Cc3cc(Cl)ccc3OCc3ccccc3)CC2)OCC1(C)O (centres unmarked) [24/H9] | top 6 | – | – | – | – | – | – | – | – | – | – | – | – | –
6 | CN(C)Cc1cccc(C2CCCN2Cc2ccccc2OCc2cccc(F)c2)n1 (centres unmarked) [25/B3] | top 6 | – | – | – | – | – | – | – | – | – | – | – | – | –
7 | CC1(C)S[C@@H]2[C@H](NC(=O)[C@H](N)c3ccc(O)cc3)C(=O)N2[C@H]1C(=O)O [AMOXICILLIN, reference compound] | – | 4 µg/mL (≈ 10.9 µM) | 8 µg/mL (≈ 21.9 µM) | 16 µg/mL (≈ 43.8 µM) | > 32 µg/mL | 4 µg/mL (≈ 10.9 µM) | 8 µg/mL (≈ 21.9 µM) | 32 µg/mL (≈ 87.6 µM) | > 64 µg/mL | 4 µg/mL (≈ 10.9 µM) | 8 µg/mL (≈ 21.9 µM) | 128 µg/mL (≈ 350 µM) | 256 µg/mL (≈ 701 µM) | sensitivity of MRSA (MRSA ATCC 43300): resistant; MIC50 (MRSA ATCC 43300; [6]): > 64 µg/mL; MIC99 (MRSA ATCC 43300; [6]): > 64 µg/mL
8 | C[C@H]1c2cccc(O)c2C(=O)C2=C(O)[C@]3(O)C(=O)C(C(N)=O)=C(O)[C@@H](N(C)C)[C@@H]3[C@@H](O)[C@@H]21 [DOXYCYCLINE, reference compound] | – | – | – | 0.5 µg/mL (≈ 1.13 µM) | 2 µg/mL (≈ 4.5 µM) | 0.5 µg/mL (≈ 1.13 µM) | 1 µg/mL (≈ 2.25 µM) | 2 µg/mL (≈ 4.5 µM) | 4 µg/mL (≈ 9 µM) | 0.5 µg/mL (≈ 1.13 µM) | 1 µg/mL (≈ 2.25 µM) | 1 µg/mL (≈ 2.25 µM) | 2 µg/mL (≈ 4.5 µM) | MIC99 (C. albicans; Candida albicans, ATCC13883): > 64 µg/mL
9 | CC(=O)NC[C@H]1CN(c2ccc(N3CCOCC3)c(F)c2)C(=O)O1 [LINEZOLID, reference compound] | – | – | – | 128 µg/mL (≈ 379 µM) | > 128 µg/mL | 1 µg/mL (≈ 2.96 µM) | 2 µg/mL (≈ 5.93 µM) | 128 µg/mL (≈ 379 µM) | 256 µg/mL (≈ 759 µM) | 1 µg/mL (≈ 2.96 µM) | 2 µg/mL (≈ 5.93 µM) | 64 µg/mL (≈ 190 µM) | 256 µg/mL (≈ 759 µM) | –
10 | Clc1ccc(COC(Cn2ccnc2)c2ccc(Cl)cc2Cl)c(Cl)c1 (centres unmarked) [MICONAZOLE, reference compound] | – | – | – | – | – | – | – | – | – | – | – | – | – | MIC50 (C. albicans; Candida albicans, ATCC13883): 0.5 µg/mL (≈ 1.2 µM); MIC99 (C. albicans; Candida albicans, ATCC13883): 1 µg/mL (≈ 2.4 µM)
